How the values were obtained:
barnyardgrass [1] = experiment: Test C postemergence; type: in vivo, Echinochloa crusgalli; details: 10 days
Procedure, shortened: (§1)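 Soil-applied (pre) and foliar (post, 1–2 leaf, 2–10 cm) sprays; surfactant-containing non-phytotoxic solvent vehicle; loam/sand substrate. Readout: visual % control at 10 d, greenhouse, versus untreated.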

blackgrass [2] = experiment: Test C preemergence; type: in vivo, Alopecurus myosuroides; details: 0 to 100 scale (0 no effect, 100 complete control)
Procedure, shortened: as §1

ragweed [3] = experiment: Test C preemergence; type: in vivo, Ambrosia artemisiifolia; details: 0 to 100 scale (0 no effect, 100 complete control)
Procedure, shortened: as §1

kochia [4] = experiment: Test C postemergence; type: in vivo, Bassia scoparia; details: 10 days
Procedure, shortened: as §1

green foxtail [5] = experiment: Test C postemergence; type: in vivo, Setaria viridis; details: 10 days
Procedure, shortened: as §1

corn [6] = experiment: Test C preemergence; type: in vivo, Zea mays; details: 0 to 100 scale (0 no effect, 100 complete control)
Procedure, shortened: as §1

rice = experiment: Test D flooded paddy test; type: in vivo, Oryza sativa; details: 250 g ai/ha, applied to paddy water, visual rating after 13 to 14 days, scale 0 to 100 (0 no effect, 100 complete control)
Procedure, shortened: (§2)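 Seedlings reached the 2-leaf stage, then pots were flooded to 3 cm over the soil surface. Compound was applied into the water, depth was maintained, and plants stayed in the greenhouse 13 to 14 days before visual scoring (0–100) relative to controls.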

oat, wild [7] = experiment: Test C preemergence; type: in vivo, Avena fatua; details: 0 to 100 scale (0 no effect, 100 complete control)
Procedure, shortened: as §1

wheat [8] = experiment: Test C preemergence; type: in vivo, Triticum aestivum; details: 0 to 100 scale (0 no effect, 100 complete control)
Procedure, shortened: as §1

ducksalad = experiment: Test D flooded paddy test; type: in vivo, Heteranthera limosa; details: 250 g ai/ha, applied to paddy water, visual rating after 13 to 14 days, scale 0 to 100 (0 no effect, 100 complete control)
Procedure, shortened: as §2

barnyardgrass [9] = experiment: Test C preemergence; type: in vivo, Echinochloa crusgalli; details: 0 to 100 scale (0 no effect, 100 complete control)
Procedure, shortened: as §1

green foxtail [10] = experiment: Test C preemergence; type: in vivo, Setaria viridis; details: 0 to 100 scale (0 no effect, 100 complete control)
Procedure, shortened: as §1

sedge, umbrella = experiment: Test D flooded paddy test; type: in vivo, Cyperus difformis; details: 250 g ai/ha, applied to paddy water, visual rating after 13 to 14 days, scale 0 to 100 (0 no effect, 100 complete control)
Procedure, shortened: as §2

horseweed = experiment: Test C postemergence; type: in vivo, Erigeron canadensis; details: 10 days
Procedure, shortened: as §1

barnyardgrass [11] = experiment: Test D flooded paddy test; type: in vivo, Echinochloa crus-galli; details: 250 g ai/ha, applied to paddy water, visual rating after 13 to 14 days, scale 0 to 100 (0 no effect, 100 complete control)
Procedure, shortened: as §2

soybean [12] = experiment: Test C preemergence; type: in vivo, Glycine max; details: 0 to 100 scale (0 no effect, 100 complete control)
Procedure, shortened: as §1

corn [13] = experiment: Test C postemergence; type: in vivo, Zea mays; details: Zea mays, post-emergence, 240 h, 10 days
Procedure, shortened: as §1

wheat [14] = experiment: Test C postemergence; type: in vivo, Triticum aestivum; details: 10 days
Procedure, shortened: as §1

blackgrass [15] = experiment: Test C postemergence; type: in vivo, Alopecurus myosuroides; details: Alopecurus myosuroides, post-emergence, 240 h, 10 days, read-out: Plant response rating, Blackgrass
Procedure, shortened: as §1

pigweed, palmer [16] = experiment: Test C preemergence; type: in vivo, Amaranthus palmeri; details: 0 to 100 scale (0 no effect, 100 complete control)
Procedure, shortened: as §1

oat, wild [17] = experiment: Test C postemergence; type: in vivo, Avena fatua; details: 10 days
Procedure, shortened: as §1

ryegrass, Italian [18] = experiment: Test C postemergence; type: in vivo, Lolium multiflorum; details: 10 days
Procedure, shortened: as §1

ryegrass, Italian [19] = experiment: Test C preemergence; type: in vivo, Lolium multiflorum; details: 0 to 100 scale (0 no effect, 100 complete control)
Procedure, shortened: as §1

kochia [20] = experiment: Test C preemergence; type: in vivo, Bassia scoparia; details: 0 to 100 scale (0 no effect, 100 complete control)
Procedure, shortened: as §1

pigweed, palmer [21] = experiment: Test C postemergence; type: in vivo, Amaranthus palmeri; details: 10 days
Procedure, shortened: as §1

ragweed [22] = experiment: Test C postemergence; type: in vivo, Ambrosia artemisiifolia; details: 10 days
Procedure, shortened: as §1

soybean [23] = experiment: Test C postemergence; type: in vivo, Glycine max; details: 10 days
Procedure, shortened: as §1

[24] = 125 g ai/ha, postemergence, 0 to 100 scale, 0 no effect, 100 complete control
[25] = Postemergence, 500 g ai/ha, visual 0 to 100 scale (0 no effect, 100 complete control)
[26] = Preemergence, 500 g ai/ha, visual rating after 10 days
[27] = Test C, preemergence, 125 g ai/ha
[28] = 125 g ai/ha, postemergence, 0 to 100 scale (0 no effect, 100 complete control)

COc1cc(-n2cnc(C(C)C)n2)cc(C(=O)N2C[C@H](C)Oc3c(Cl)cccc32)c1OC [Compound 194, [(2S)-8-chloro-2-methyl-2,3-dihydro-1,4-benzoxazin-4-yl]-[5-(3-isopropyl-1,2,4-triazol-1-yl)-2,3-dimethoxy-phenyl]methanone]
0: Corn plant response rating (corn [6]; [27]) | Plant response rating, Rice (Flood) (rice) | Wheat plant response rating (wheat [8]; [27]) | Plant response rating, Ducksalad (Flood) (ducksalad) | Plant response rating, Sedge, Umbrella (Flood) (sedge, umbrella) | Plant response rating, Horseweed (horseweed; [24]) | Plant response rating, Horseweed (horseweed; [25]) | Plant response rating, Barnyardgrass (Flood) (barnyardgrass [11]) | Plant response rating, Oat, Wild (oat, wild [17]; [24]) | Plant response rating, Kochia (kochia [20]; [26]) | Kochia plant response rating (kochia [20]; [27]) | Plant response rating, Pigweed, Palmer (pigweed, palmer [21]; [24]) | Plant response rating, Ragweed (ragweed [22]; [24])
80: Plant response rating, Blackgrass (blackgrass [2]; [26]) | Plant response rating, Kochia (kochia [4]; [25])
50: Plant response rating, Foxtail, Green (green foxtail [5]; [25]) | Plant response rating, Wheat (wheat [8]; [26]) | Plant response rating, Ragweed (ragweed [22]; [25])
30: Plant response rating, Barnyardgrass (barnyardgrass [1]; [25]) | Plant response rating, Corn (corn [6]; [26]) | Plant response rating, Pigweed, Palmer (pigweed, palmer [16]; [26]) | Plant response rating, Ryegrass, Italian (ryegrass, Italian [18]; [24])
70: Plant response rating, Barnyardgrass (barnyardgrass [9]; [26]) | Foxtail, Green plant response rating (green foxtail [10]; [27]) | Plant response rating, Ryegrass, Italian (ryegrass, Italian [18]; [25]) | Ryegrass, Italian plant response rating (ryegrass, Italian [19]; [27])
20%: Corn plant response rating (crop injury, 0 = no effect, 100 = complete kill) at 500 g/ha (corn [13]; [25])
10%: Corn plant response rating (crop injury, 0 = no effect, 100 = complete kill) at 125 g/ha (corn [13]; [28])
20: Blackgrass plant response rating (blackgrass [2]; [27]) | Plant response rating, Ragweed (ragweed [3]; [26]) | Ragweed plant response rating (ragweed [3]; [27]) | Oat, Wild plant response rating (oat, wild [7]; [27]) | Plant response rating, Wheat (wheat [14]; [24]) | Plant response rating, Wheat (wheat [14]; [25]) | Pigweed, Palmer plant response rating (pigweed, palmer [16]; [27]) | Plant response rating, Oat, Wild (oat, wild [17]; [25]) | Plant response rating, Pigweed, Palmer (pigweed, palmer [21]; [25])
30%: pest or weed control at 500 g/ha (blackgrass [15]; [25])
0%: pest or weed control at 125 g/ha (blackgrass [15]; [28])
90: Plant response rating, Oat, Wild (oat, wild [7]; [26]) | Plant response rating, Ryegrass, Italian (ryegrass, Italian [19]; [26]) | Plant response rating, Soybean (soybean [23]; [24]) | Plant response rating, Soybean (soybean [23]; [25])
100: Plant response rating, Foxtail, Green (green foxtail [10]; [26])
10: Plant response rating, Barnyardgrass (barnyardgrass [1]; [24]) | Plant response rating, Kochia (kochia [4]; [24]) | Plant response rating, Foxtail, Green (green foxtail [5]; [24]) | Barnyardgrass plant response rating (barnyardgrass [9]; [27]) | Plant response rating, Soybean (soybean [12]; [26]) | Soybean plant response rating (soybean [12]; [27])
